From patent US8609645B2, “Pharmaceutical formulation” (Intervet Inc., priority 2004, dated 2013)

Tests used:
[1] = cited from earlier work
[2] = cited from earlier work; remark: listed apart in the source
fungi = experiment: Antifungal activity compared with traditional veterinary antifungal compounds; conditions: fold versus clotrimazole, miconazole, nystatin
From the text: The antifungal drug preferably is posaconazole, a drug with 10-400× the antifungal activity of traditional antifungal compounds used in veterinary medicine such as clotrimazole, miconazole, nystatin. It will be the first use of a triazole antifungal in veterinary medicine. The combination for this proposed otic product is new. The product requires only one application per day. In summary, the justification for use of the centralized procedure is: • Novel antibiotic in an otic preparation with none of the ototoxicity of the aminoglycosides often used in such products; • Novel, corticosteroid, with a better safety profile when compared other corticosteroids used in otic preparations; • Potent triazole anti-fungal drug; • Novel combination of the three drugs described above; • Single daily application.

Row | Structure (SMILES) | solubility in acetone ([1]; acetone) | solubility in chloroform ([1]; chloroform) | solubility in ethanol ([1]; ethanol) | solubility in isopropanol ([1]; isopropanol) | solubility in methanol ([1]; methanol) | solubility in tetrahydrofuran ([1]; tetrahydrofuran) | solubility in water ([1]; water) | partition coefficient between octanol and water [2] | antifungal activity relative to traditional antifungal compounds (fungi)
1 | C[C@@H]1C[C@H]2[C@@H]3CCC4=CC(=O)C=C[C@]4(C)[C@@]3(Cl)[C@@H](O)C[C@]2(C)[C@@]1(OC(=O)c1ccco1)C(=O)CCl [Mometasone Furoate, 9,21-Dichloro-11(beta),17-dihydroxy-16(alpha)-methylpregna-1,4-diene-3,20-dione 17-(2 Furoate)] | soluble | soluble | slightly soluble | slightly soluble | slightly soluble | freely soluble | practically insoluble | greater than 5000 | 
2 | CC[C@@H]([C@H](C)O)n1ncn(-c2ccc(N3CCN(c4ccc(OC[C@@H]5CO[C@@](Cn6cncn6)(c6ccc(F)cc6F)C5)cc4)CC3)cc2)c1=O [posaconazole] |  |  |  |  |  |  |  |  | 10-400 ×
